Consider 11 compounds from patent US6544990B2, “Substituted quinolinecarboxamides as antiviral agents” (Pharmacia & Upjohn Company, priority 2001, dated 2003).

Molecules are shown by their SMILES.

Series [1] has as its target HSV polymerase (Human herpesvirus 1, UniProt P04293). Description: Polymerase scintillation proximity assay (SPA), HSV. The series is classed as biochemical. A general note: SPA uses beads or plates that emit light when radiolabelled molecules are held near them.
Series [2] deals with T1, HCMV polymerase (Human cytomegalovirus, UniProt P08546).
T1 construct: made in house; host or cells: recombinant baculovirus-infected SF-9 cells
Put plainly: HCMV polymerase scintillation proximity assay (SPA). The series is classed as biochemical. The note with it: CMV polymerase. The method, then:
The HCMV polymerase assay is performed using a scintillation proximity assay (SPA) as described in several references, such as N. D. Cook, et al., Pharmaceutical Manufacturing International, pages 49-53 (1992); K. Takeuchi, Laboratory Practice, September issue (1992); U.S. Pat. No. 4,568,649 (1986); which are incorporated by reference herein. Reactions are performed in 96-well plates. The assay is conducted in 100 μl volume with 5.4 mM HEPES (pH 7.5), 11.7 mM KCl, 4.5 mM MgCl2, 0.36 mg/ml BSA, and 90 nM 3H-dTTP. Assays are run with and without CHAPS, (3-[(3-Cholamidopropyl)-dimethylammonio]-1-propane-sulfonate) at a final concentration of 2 mM. HCMV polymerase is diluted in enzyme dilution buffer containing 50% glycerol, 250 mM NaCl, 10 mM HEPES (pH 7.5), 100 μg/ml BSA, and 0.01% sodium azide. The HCMV polymerase, which is expressed in recombinant baculovirus-infected SF-9 cells and purified according to literature procedures, is added at 10% (or 10 μl ) of the final reaction volume, i.e., 100 μl. Compounds are diluted in 50% DMSO and 10 μl are added to each well. Control wells contain an equivalent concentration of DMSO. Unless noted otherwise, reactions are initiated via the addition of 6 nM biotinylated poly(dA)-oligo(dT) template/primer to reaction mixtures containing the enzyme, substrate, and compounds of interest. Plates are incubated in a 25 C or 37 C H20 bath and terminated via the addition of 40 μl/reaction of 0.5 M EDTA (pH 8) per well. Reactions are terminated within the time-frame during which substrate incorporation is linear and varied depending upon the enzyme and conditions used, i.e., 30 min. for HCMV polymerase. Ten μl of streptavidin-SPA beads (20 mg/mil in PBS/10% glycerol) are added following termination of the reaction. Plates are incubated 10 min. at 37 C, then equilibrated to room temperature, and counted on a Packard Topcount. Linear regressions are performed and IC50's are calculated using computer software.
A modified version of the above HCMV polymerase assay is performed as described above, but with the following changes: Compounds are diluted in 100% DMSO until final dilution into assay buffer. In the previous assay, compounds are diluted in 50% DMSO. 4.5 mM dithiotherotol (DTT) is added to the polymerase buffer.

Series [3] deals with VZV polymerase (Varicella-zoster virus, UniProt P09252). Description: Polymerase scintillation proximity assay (SPA), VZV. It counts as biochemical.
Sequence of VZV polymerase (P09252 whole entry): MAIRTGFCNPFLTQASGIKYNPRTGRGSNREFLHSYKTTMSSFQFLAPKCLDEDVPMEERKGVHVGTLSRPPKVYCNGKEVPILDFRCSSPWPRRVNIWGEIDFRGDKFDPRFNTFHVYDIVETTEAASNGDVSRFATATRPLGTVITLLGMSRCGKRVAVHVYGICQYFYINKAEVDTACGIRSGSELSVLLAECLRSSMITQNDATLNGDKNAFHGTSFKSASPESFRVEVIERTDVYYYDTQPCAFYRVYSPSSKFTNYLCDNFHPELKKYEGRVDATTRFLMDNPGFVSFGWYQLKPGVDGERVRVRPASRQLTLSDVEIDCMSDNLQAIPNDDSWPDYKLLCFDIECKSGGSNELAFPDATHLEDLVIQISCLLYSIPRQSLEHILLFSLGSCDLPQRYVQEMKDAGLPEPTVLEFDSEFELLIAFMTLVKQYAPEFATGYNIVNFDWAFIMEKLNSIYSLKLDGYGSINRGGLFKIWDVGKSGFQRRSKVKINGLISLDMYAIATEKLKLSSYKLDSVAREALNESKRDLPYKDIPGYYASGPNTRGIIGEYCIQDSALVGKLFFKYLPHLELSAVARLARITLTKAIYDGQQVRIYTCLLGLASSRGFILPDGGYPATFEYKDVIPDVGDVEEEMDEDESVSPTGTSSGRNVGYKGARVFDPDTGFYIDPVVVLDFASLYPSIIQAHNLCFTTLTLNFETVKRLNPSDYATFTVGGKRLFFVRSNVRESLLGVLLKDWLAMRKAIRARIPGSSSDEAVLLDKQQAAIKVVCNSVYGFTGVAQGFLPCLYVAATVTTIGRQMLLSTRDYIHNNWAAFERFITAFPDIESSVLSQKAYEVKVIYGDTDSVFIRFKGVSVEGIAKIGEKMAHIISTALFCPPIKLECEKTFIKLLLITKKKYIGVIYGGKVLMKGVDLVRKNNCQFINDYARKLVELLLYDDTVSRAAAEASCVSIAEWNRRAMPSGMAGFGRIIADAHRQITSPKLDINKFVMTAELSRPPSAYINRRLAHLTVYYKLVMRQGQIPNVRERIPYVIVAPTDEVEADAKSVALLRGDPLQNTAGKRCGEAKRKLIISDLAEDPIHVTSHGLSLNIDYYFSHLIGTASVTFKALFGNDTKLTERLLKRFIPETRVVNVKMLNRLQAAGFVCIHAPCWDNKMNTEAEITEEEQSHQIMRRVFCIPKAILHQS

Sequence of HSV polymerase (P04293 whole entry): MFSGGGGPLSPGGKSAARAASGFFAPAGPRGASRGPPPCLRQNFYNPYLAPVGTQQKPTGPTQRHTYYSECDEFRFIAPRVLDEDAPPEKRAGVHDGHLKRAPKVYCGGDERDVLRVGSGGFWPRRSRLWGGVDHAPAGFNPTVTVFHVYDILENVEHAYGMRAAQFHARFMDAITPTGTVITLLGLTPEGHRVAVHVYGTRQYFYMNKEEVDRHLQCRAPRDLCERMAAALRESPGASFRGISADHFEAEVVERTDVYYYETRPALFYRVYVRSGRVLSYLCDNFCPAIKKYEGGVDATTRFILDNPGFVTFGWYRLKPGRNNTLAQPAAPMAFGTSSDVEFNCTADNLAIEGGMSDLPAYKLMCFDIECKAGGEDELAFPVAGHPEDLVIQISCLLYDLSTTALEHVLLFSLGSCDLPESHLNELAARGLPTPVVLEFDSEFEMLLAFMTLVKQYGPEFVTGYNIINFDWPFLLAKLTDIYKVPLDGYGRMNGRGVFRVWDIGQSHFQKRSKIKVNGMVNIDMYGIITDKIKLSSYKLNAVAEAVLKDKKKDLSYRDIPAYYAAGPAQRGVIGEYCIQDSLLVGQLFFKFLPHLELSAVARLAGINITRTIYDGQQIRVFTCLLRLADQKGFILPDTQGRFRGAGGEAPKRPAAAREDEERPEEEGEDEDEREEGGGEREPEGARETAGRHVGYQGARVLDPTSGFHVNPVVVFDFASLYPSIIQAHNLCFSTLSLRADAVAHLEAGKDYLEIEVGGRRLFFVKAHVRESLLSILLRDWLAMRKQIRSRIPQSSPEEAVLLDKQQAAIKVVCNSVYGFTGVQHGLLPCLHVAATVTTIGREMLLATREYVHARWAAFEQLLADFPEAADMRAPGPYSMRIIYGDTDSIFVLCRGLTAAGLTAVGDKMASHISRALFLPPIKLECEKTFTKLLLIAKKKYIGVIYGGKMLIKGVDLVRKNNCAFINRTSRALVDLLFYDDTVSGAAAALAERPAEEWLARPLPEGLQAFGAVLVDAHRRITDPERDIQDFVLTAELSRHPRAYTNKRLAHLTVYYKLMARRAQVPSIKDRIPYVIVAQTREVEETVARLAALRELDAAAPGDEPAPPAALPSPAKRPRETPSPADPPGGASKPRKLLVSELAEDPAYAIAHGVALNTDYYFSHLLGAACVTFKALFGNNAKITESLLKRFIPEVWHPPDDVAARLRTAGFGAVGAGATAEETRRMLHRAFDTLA
T1 sequence (P08546 whole entry): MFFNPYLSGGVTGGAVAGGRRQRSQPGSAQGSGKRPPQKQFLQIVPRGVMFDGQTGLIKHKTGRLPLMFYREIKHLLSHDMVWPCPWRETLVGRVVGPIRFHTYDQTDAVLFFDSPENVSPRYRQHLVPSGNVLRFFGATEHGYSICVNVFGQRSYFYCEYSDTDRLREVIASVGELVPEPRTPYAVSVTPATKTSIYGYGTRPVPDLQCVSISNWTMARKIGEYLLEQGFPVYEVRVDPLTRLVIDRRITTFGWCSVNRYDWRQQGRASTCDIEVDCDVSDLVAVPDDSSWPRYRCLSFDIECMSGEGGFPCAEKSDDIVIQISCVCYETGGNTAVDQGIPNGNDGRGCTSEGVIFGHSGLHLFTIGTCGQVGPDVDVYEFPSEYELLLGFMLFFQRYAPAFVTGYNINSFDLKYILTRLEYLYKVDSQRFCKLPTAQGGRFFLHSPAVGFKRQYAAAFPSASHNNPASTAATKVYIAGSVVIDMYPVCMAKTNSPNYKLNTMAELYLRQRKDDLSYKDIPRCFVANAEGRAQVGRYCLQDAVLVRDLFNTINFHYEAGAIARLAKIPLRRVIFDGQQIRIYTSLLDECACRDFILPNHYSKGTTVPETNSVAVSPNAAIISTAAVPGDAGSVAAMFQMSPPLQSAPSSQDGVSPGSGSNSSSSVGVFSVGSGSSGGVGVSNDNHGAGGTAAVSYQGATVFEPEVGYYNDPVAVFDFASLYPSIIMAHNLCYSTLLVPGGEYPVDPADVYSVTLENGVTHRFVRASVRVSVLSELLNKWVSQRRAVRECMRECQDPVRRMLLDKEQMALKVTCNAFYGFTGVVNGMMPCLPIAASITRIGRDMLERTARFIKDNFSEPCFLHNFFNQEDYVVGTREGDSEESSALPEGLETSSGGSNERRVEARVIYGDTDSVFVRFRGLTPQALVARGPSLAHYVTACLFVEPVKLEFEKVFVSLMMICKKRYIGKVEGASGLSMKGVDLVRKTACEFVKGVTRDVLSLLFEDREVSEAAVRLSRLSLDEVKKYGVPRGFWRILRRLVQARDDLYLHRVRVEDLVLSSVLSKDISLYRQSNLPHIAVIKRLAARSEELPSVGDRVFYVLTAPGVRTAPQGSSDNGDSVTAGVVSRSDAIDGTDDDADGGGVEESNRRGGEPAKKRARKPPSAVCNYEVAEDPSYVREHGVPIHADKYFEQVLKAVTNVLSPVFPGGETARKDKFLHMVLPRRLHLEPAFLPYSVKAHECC

Regarding `Cn1cc(C(=O)NCc2ccc(Cl)cc2)c(=O)c2cc(CN3CCOCC3)cc(C#CCO)c21` [Example 4, N-(4-chlorobenzyl)-8-(3-hydroxy-1-propynyl)-1-methyl-6-(4-morpholinylmethyl)-4-oxo-1,4-dihydro-3-quinolinecarboxamide], the melting point (in general, the temperature, or range, at which the solid turns liquid) is 180 to 183 °C. Further, the half-maximal inhibitory concentration (IC50) (commonly the concentration that gives 50% inhibition) in series [1] is 0.83 µM. In addition, the IC50 in series [2] was determined as 0.83 µM. Further, in series [3], the IC50 came to 0.36 µM.
For the compound `Cn1cc(C(=O)NCc2ccc(Cl)cc2)c(=O)c2cc(CN3CCOCC3)cc(C#CCCO)c21` [Example 6, N-(4-chlorobenzyl)-8-(4-hydroxy-1-butynyl)-1-methyl-6-(4-morpholinylmethyl)-4-oxo-1,4-dihydro-3-quinolinecarboxamide], the melting point fell in the range of 168 to 170 °C. The same compound came in with a half-maximal inhibitory concentration (IC50) in series [1] of 0.82 µM. Half-maximal inhibition in series [2] (IC50) required 0.8 µM. Moreover, in series [3], half-maximal inhibition (IC50) was put at 0.36 µM.
The compound `C[C@H](O)C#Cc1cc(CN2CCOCC2)cc2c(=O)c(C(=O)NCc3ccc(Cl)cc3)cn(C)c12` [Example 7, N-(4-chlorobenzyl)-8-[(3S)-3-hydroxy-1-butynyl]-1-methyl-6-(4-morpholinylmethyl)-4-oxo-1,4-dihydro-3-quinolinecarboxamide] gave a melting point of 158 to 161 °C. This compound registered an IC50 in series [1] of 0.45 µM. The same compound came in with an IC50 in series [2] of 0.76 µM. The same compound showed an IC50 in series [3] of 0.18 µM.
The like results for `C[C@@H](O)C#Cc1cc(CN2CCOCC2)cc2c(=O)c(C(=O)NCc3ccc(Cl)cc3)cn(C)c12` [Example 8, N-(4-chlorobenzyl)-8-[(3R)-3-hydroxy-1-butynyl]-1-methyl-6-(4-morpholinylmethyl)-4-oxo-1,4-dihydro-3-quinolinecarboxamide] were, in that order, 147 to 150 °C, 1 µM, 0.87 µM and 0.48 µM.
On the same counts, the results for `Cn1cc(C(=O)NCc2ccc(Cl)cc2)c(=O)c2cc(CN3CCOCC3)cc(C#CCCCO)c21` [Example 10, N-(4-chlorobenzyl)-8-(5-hydroxy-1-pentynyl)-1-methyl-6-(4-morpholinylmethyl)-4-oxo-1,4-dihydro-3-quinolinecarboxamide] are 179 to 182 °C, 0.41 µM, 0.48 µM and 0.16 µM.
`Cn1cc(C(=O)NCc2ccc(Cl)cc2)c(=O)c2cc(CN3CCOCC3)cc(C#CCN3CCS(=O)(=O)CC3)c21` [Example 11, N-(4-chlorobenzyl)-8-[3-(1,1-dioxido-4-thiomorpholinyl)-1-propynyl]-1-methyl-6-(4-morpholinylmethyl)-4-oxo-1,4-dihydro-3-quinolinecarboxamide] showed a melting point of 220 to 222 °C. This compound gave an IC50 in series [1] of 0.28 µM. In series [2], this compound yielded an IC50 of 0.36 µM. In series [3], this compound had a half-inhibitory concentration (IC50) of 0.18 µM.
As to `Cn1cc(C(=O)NCc2ccc(Cl)cc2)c(=O)c2cc(CN3CCOCC3)cc(C#CCn3cnc(Cl)c3Cl)c21` [Example 13, N-(4-chlorobenzyl)-8-[3-(4,5-dichloro-1H-imidazol-1-yl)prop-1-ynyl]-1-methyl-6-(morpholin-4-ylmethyl)-4-oxo-1,4-dihydroquinoline-3-carboxamide], the melting point was in the range of 178 to 181 °C. This compound also displayed an IC50 in series [1] of 0.49 µM. In addition, in series [2], half-maximal inhibition (IC50) required 0.5 µM. The half-maximal inhibitory concentration (IC50) in series [3] worked out at 0.25 µM.
With `Cn1cc(C(=O)NCc2ccc(Cl)cc2)c(=O)c2cc(CN3CCOCC3)cc(C#Cc3ccccn3)c21` [Example 15, N-(4-chlorobenzyl)-1-methyl-6-(morpholin-4-ylmethyl)-4-oxo-8-(pyridin-2-ylethynyl)-1,4-dihydroquinoline-3-carboxamide], the melting point was 234 to 236 °C. The IC50 in series [1] stood at 0.26 µM. For the same compound, the half-inhibitory concentration (IC50) in series [2] is 0.32 µM. Further, in series [3], the IC50 came out at 0.14 µM.
On the same counts, the results for `Cn1cc(C(=O)NCc2ccc(Cl)cc2)c(=O)c2cc(CN3CCOCC3)cc(C#Cc3cccnc3)c21` [Example 16, N-(4-chlorobenzyl)-1-methyl-6-(morpholin-4-ylmethyl)-4-oxo-8-(pyridin-3-ylethynyl)-1,4-dihydroquinoline-3-carboxamide] are 195 to 197 °C, 0.28 µM, 0.47 µM and 0.15 µM.
On the same counts, the results for `Cn1cc(C(=O)NCc2ccc(Cl)cc2)c(=O)c2cc(CN3CCOCC3)cc(C#Cc3ccncc3)c21` [Example 17, N-(4-chlorobenzyl)-1-methyl-6-(morpholin-4-ylmethyl)-4-oxo-8-(pyridin-4-ylethynyl)-1,4-dihydroquinoline-3-carboxamide] are 200 to 202 °C, 0.21 µM, 0.42 µM and 0.11 µM.
The like results for `Cn1cc(C(=O)NCc2ccc(Cl)cc2)c(=O)c2cc(CN3CCOCC3)cc(C#CCn3ccnc3)c21` [Example 23, N-(4-chlorobenzyl)-8-[3-(1 H-imidazol-1-yl)prop-1-ynyl]-1-methyl-6-(morpholin-4-ylmethyl)-4-oxo-1,4-dihydroquinoline-3-carboxamide] were, in that order, 178 to 180 °C, 0.22 µM, 0.33 µM and 0.1 µM.
